Structures are written as SMILES.

This test deals with pSTAT6 (pY641-STAT6) in PBMC. Kind of test: MSD-pSTAT-PBMC Assay (pSTAT6). The format is cell-based. The conditions noted are these: compound 3 hrs, then 1 ng/mL IL-4 for 10 min. The text has this: Cryopreserved Peripheral Blood Mononuclear Cells (PBMC) are from AllCells. Recombinant Human […] and IL-6 are from Peprotech. Mouse monoclonal anti-STAT3 antibody, rabbit monoclonal anti-pY705-STAT3 antibody, rabbit monoclonal Anti-pY641-STAT6 antibody, and lysis buffer are from Cell Signaling Technology (CST). Mouse monoclonal anti-STAT6 antibody is from BioLegend. Assay plates, blocker, and anti-rabbit secondary antibody are from Meso Scale Discovery (MSD).
Cryopreserved PBMCs were thawed out and allowed to recover overnight in IMDM+10% heat-inactivated FBS prior to plating 50,000 (STAT3) or 25,000 (STAT6) cells per well in 96-well U-bottom tissue culture plates. Cells were treated with compound for 3 hrs, then stimulated with 10 ng/mL IL-6 (STAT3) or 1 ng/mL IL-4 (STAT6) for 10 min. Cells were then spun down and washed with ice-cold PBS prior to lysing the cell pellet with 1× lysis buffer (CST) with 1× HALT protease and phosphatase inhibitor cocktail (Thermo). Lysates were transferred to and incubated overnight at 4° C. with shaking in QuickPlex 96-well high bind assay plates (MSD) pre-coated overnight with 30 μL per well of 0.6 μg/mL mouse monoclonal anti-STAT3 antibody (STAT3) or 2 μg/mL mouse monoclonal anti-STAT6 antibody (STAT6) in 1×PBS, and pre-blocked for 1 hour with 3% Blocker-A (MSD). Captured protein in the assay plates were then washed and probed with 25 μL per well of 0.25 μg/ml rabbit monoclonal anti-pY705-STAT3 antibody (STAT3) or 0.18 μg/ml rabbit monoclonal Anti-pY641-STAT6 antibody (STAT6) in 1% Blocker-A for 1 hour at room temperature with shaking, then washed and probed with 25 ul per well of 1 ug/ml Sulfo-TAG Labeled Goat Anti-Rabbit Antibody (MSD) in 1% Blocker-A for 1 hour at room temperature with shaking. Assay plates were then washed and 150 μL of 1× Read Buffer-T (MSD) was added to each well prior to reading on an SQ120 MSD Plate Reader. Assay signal from each sample was subtracted by the signal from unstimulated control wells and normalized to DMSO control wells, IC50 values were calculated using Graph Pad Prism Dose-Response Nonlinear Regression with variable slope. For both pSTAT3 and pSTAT6 A=≤100 nM; B=>100-1000 nM; C=>1000-3000 nM; and D=>3 μM.
For orientation: IC50 means the concentration that inhibits the measured activity by half. Low readings indicate greater potency in that assay, high ones weaker potency in that assay. Regarding `CCCC(=O)SCCOP(=O)(OCCSC(=O)CCC)C(F)(F)c1ccc2sc(C(=O)NC3CC4CC4CC4CCC(C(=O)N5CC(C#N)C(c6cccc(OCCCCOc7ccc(C8CCC(=O)NC8=O)cc7)c6)C5)N4C3=O)cc2c1` [Compound 4, S,S′-(((((2-(((3S,6S,7aS,8aR,9aR)-3-((rel-3S,4R)-3-cyano-4-(3-(4-(4-(2,6-dioxopiperidin-3-yl)phenoxy)butoxy)phenyl)pyrrolidine-1-carbonyl)-5-oxodecahydro-1H-cyclopropa[d]pyrrolo[1,2-a]azocin-6-yl)carbamoyl)benzo[b]thiophen-5-yl)difluoromethyl)phosphoryl)bis(oxy))bis(ethane-2,1-diyl)) dibutanethioate], the IC50 was 100 to 1000 nM.
In the case of `CCCC(=O)SCCOP(=O)(OCCSC(=O)CCC)C(F)(F)c1ccc2sc(C(=O)NC3CC4CC4CC4CCC(C(=O)N5CC(c6ccn(CCCCCCC#Cc7cccc8c7CN(C7CCC(=O)NC7=O)C8=O)c(=O)c6)CC56CC6)N4C3=O)cc2c1` [Compound 6, S,S′-(((((2-(((3S,6S,7aS,8aR,9aR)-3-((6R)-6-(1-(8-(2-(2,6-dioxopiperidin-3-yl)-1-oxoisoindolin-4-yl)oct-7-yn-1-yl)-2-oxo-1,2-dihydropyridin-4-yl)-4-azaspiro[2.4]heptane-4-carbonyl)-5-oxodecahydro-1H-cyclopropa[d]pyrrolo[1,2-a]azocin-6-yl)carbamoyl)benzo[b]thiophen-5-yl)difluoromethyl)phosphoryl)bis(oxy))bis(ethane-2,1-diyl)) dibutanethioate], the IC50 was less than 100 nM.
The result for `CCCC(=O)SCCOP(=O)(OCCSC(=O)CCC)C(F)(F)c1ccc2sc(C(=O)NC3CC4CC4CC4CCC(C(=O)N5CC(C#N)C(c6cccc(OCCCCCC#Cc7cccc8c7CN(C7CCC(=O)NC7=O)C8=O)c6)C5)N4C3=O)cc2c1` [Compound 8, S,S′-(((((2-(((3S,6S,7aS,8aR,9aR)-3-((rel-3S,4R)-3-cyano-4-(3-((7-(2-(2,6-dioxopiperidin-3-yl)-1-oxoisoindolin-4-yl)hept-6-yn-1-yl)oxy)phenyl)pyrrolidine-1-carbonyl)-5-oxodecahydro-1H-cyclopropa[d]pyrrolo[1,2-a]azocin-6-yl)carbamoyl)benzo[b]thiophen-5-yl)difluoromethyl)phosphoryl)bis(oxy))bis(ethane-2,1-diyl)) dibutanethioate] reads less than 100 nM.
In turn, `CCCC(=O)SCCOP(=O)(OCCSC(=O)CCC)C(F)(F)c1ccc2sc(C(=O)NC3CC4CC4CC4CCC(C(=O)N5CC(c6ccn(CCCCCOc7ccc(C8CCC(=O)NC8=O)cc7)c(=O)c6)CC56CC6)N4C3=O)cc2c1` [Compound 9, S,S′-(((((2-(((3S,6S,7aS,8aR,9aR)-3-((6R)-6-(1-(5-(4-(2,6-dioxopiperidin-3-yl)phenoxy)pentyl)-2-oxo-1,2-dihydropyridin-4-yl)-4-azaspiro[2.4]heptane-4-carbonyl)-5-oxodecahydro-1H-cyclopropa[d]pyrrolo[1,2-a]azocin-6-yl)carbamoyl)benzo[b]thiophen-5-yl)difluoromethyl)phosphoryl)bis(oxy))bis(ethane-2,1-diyl)) dibutanethioate] returned an IC50 of less than 100 nM.
In turn, `CCCC(=O)SCCOP(=O)(OCCSC(=O)CCC)C(F)(F)c1ccc2sc(C(=O)NC3CC4CC4CC4CCC(C(=O)N5CC(C#N)C(c6cccc(N7CCN(c8ccc9c(c8)[nH]c(=O)n9C8CCC(=O)NC8=O)CC7)c6)C5)N4C3=O)cc2c1` [Compound 14, S,S′-(((((2-(((3S,6S,7aS,8aR,9aR)-3-((rel-3S,4R)-3-cyano-4-(3-(4-(1-(2,6-dioxopiperidin-3-yl)-2-oxo-2,3-dihydro-1H-benzo[d]imidazol-5-yl)piperazin-1-yl)phenyl)pyrrolidine-1-carbonyl)-5-oxodecahydro-1H-cyclopropa[d]pyrrolo[1,2-a]azocin-6-yl)carbamoyl)benzo[b]thiophen-5-yl)difluoromethyl)phosphoryl)bis(oxy))bis(ethane-2,1-diyl)) dibutanethioate] registered an IC50 of less than 100 nM.
Turning to `CCCC(=O)SCCOP(=O)(OCCSC(=O)CCC)C(F)(F)c1ccc2sc(C(=O)NC3CC4CC4CC4CCC(C(=O)N5CC(C#N)C(c6cccc(OCCOCCOc7cccc8c7CN(C7CCC(=O)NC7=O)C8=O)c6)C5)N4C3=O)cc2c1` [Compound 16, S,S′-(((((2-(((3S,6S,7aS,8aR,9aR)-3-((rel-3S,4R)-3-cyano-4-(3-(2-(2-((2-(2,6-dioxopiperidin-3-yl)-1-oxoisoindolin-4-yl)oxy)ethoxy)ethoxy)phenyl)pyrrolidine-1-carbonyl)-5-oxodecahydro-1H-cyclopropa[d]pyrrolo[1,2-a]azocin-6-yl)carbamoyl)benzo[b]thiophen-5-yl)difluoromethyl)phosphoryl)bis(oxy))bis(ethane-2,1-diyl)) dibutanethioate], the IC50 was less than 100 nM.
For the compound `CCCC(=O)SCCOP(=O)(OCCSC(=O)CCC)C(F)(F)c1ccc2sc(C(=O)NC3CC4CC4CC4CCC(C(=O)N5CC(c6ccn(CCOCCOCCOc7cccc8c7CN(C7CCC(=O)NC7=O)C8=O)c(=O)c6)CC56CC6)N4C3=O)cc2c1` [Compound 18, S,S′-(((((2-(((3S,6S,7aS,8aR,9aR)-3-((6R)-6-(1-(2-(2-(2-((2-(2,6-dioxopiperidin-3-yl)-1-oxoisoindolin-4-yl)oxy)ethoxy)ethoxy)ethyl)-2-oxo-1,2-dihydropyridin-4-yl)-4-azaspiro[2.4]heptane-4-carbonyl)-5-oxodecahydro-1H-cyclopropa[d]pyrrolo[1,2-a]azocin-6-yl)carbamoyl)benzo[b]thiophen-5-yl)difluoromethyl)phosphoryl)bis(oxy))bis(ethane-2,1-diyl)) dibutanethioate], the IC50 is 100 to 1000 nM.
For the compound `CCCC(=O)SCCOP(=O)(OCCSC(=O)CCC)C(F)(F)c1ccc2sc(C(=O)NC3CC4CC4CC4CCC(C(=O)N5CC(c6ccn(C7CCN(c8ccc9c(c8)[nH]c(=O)n9C8CCC(=O)NC8=O)CC7)c(=O)c6)CC56CC6)N4C3=O)cc2c1` [Compound 20, S,S′-(((((2-(((3S,6S,7aS,8aR,9aR)-3-((6R)-6-(1-(1-(1-(2,6-dioxopiperidin-3-yl)-2-oxo-2,3-dihydro-1H-benzo[d]imidazol-5-yl)piperidin-4-yl)-2-oxo-1,2-dihydropyridin-4-yl)-4-azaspiro[2.4]heptane-4-carbonyl)-5-oxodecahydro-1H-cyclopropa[d]pyrrolo[1,2-a]azocin-6-yl)carbamoyl)benzo[b]thiophen-5-yl)difluoromethyl)phosphoryl)bis(oxy))bis(ethane-2,1-diyl)) dibutanethioate], the IC50 lay within 100 to 1000 nM.

The values above are taken from patent US20260308185A1, “STAT DEGRADERS AND USES THEREOF” (Recludix Pharma, Inc., priority 2023, published 2026).
